Measurements from PubChem BioAssay (NCI).
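Interpolation was linear, between the two tested concentrations surrounding the appropriate level; five concentrations were tested over 48 hours in 96-well plates. GI50 marks 50% less growth. TGI is the concentration that stops growth completely.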

What was measured:
Assay in all cases: NCI-60 cell line screen, 48 h
786-0 renal = system: 786-0 renal
A549 NSCLC = system: A549 NSCLC
ACHN renal = system: ACHN renal
BT-549 breast = system: BT-549 breast
CAKI-1 renal = system: CAKI-1 renal
CCRF-CEM leukemia = system: CCRF-CEM leukemia
COLO 205 colon = system: COLO 205 colon
DU-145 prostate = system: DU-145 prostate
EKVX NSCLC = system: EKVX NSCLC
HCC-2998 colon = system: HCC-2998 colon
HCT-15 colon = system: HCT-15 colon
HL-60(TB) leukemia = system: HL-60(TB) leukemia
HOP-62 NSCLC = system: HOP-62 NSCLC
HOP-92 NSCLC = system: HOP-92 NSCLC
HS 578T breast = system: HS 578T breast
HT29 colon = system: HT29 colon
IGROV1 ovarian = system: IGROV1 ovarian
K-562 leukemia = system: K-562 leukemia
KM12 colon = system: KM12 colon
LOX IMVI melanoma = system: LOX IMVI melanoma
M14 melanoma = system: M14 melanoma
MALME-3M melanoma = system: MALME-3M melanoma
MCF7 breast = system: MCF7 breast
MDA-MB-231 breast = system: MDA-MB-231 breast
MDA-MB-435 = system: MDA-MB-435
MOLT-4 leukemia = system: MOLT-4 leukemia
NCI-H226 lung = system: NCI-H226 lung
NCI-H23 lung = system: NCI-H23 lung
NCI-H460 lung = system: NCI-H460 lung
NCI-H522 lung = system: NCI-H522 lung
NCI/ADR-RES ovarian = system: NCI/ADR-RES ovarian
OVCAR-3 ovarian = system: OVCAR-3 ovarian
OVCAR-4 ovarian = system: OVCAR-4 ovarian
OVCAR-5 ovarian = system: OVCAR-5 ovarian
OVCAR-8 ovarian = system: OVCAR-8 ovarian
PC-3 prostate = system: PC-3 prostate
RPMI-8226 leukemia = system: RPMI-8226 leukemia
RXF 393 renal = system: RXF 393 renal
SF-268 CNS = system: SF-268 CNS
SF-295 CNS = system: SF-295 CNS
SF-539 CNS = system: SF-539 CNS
SK-MEL-2 melanoma = system: SK-MEL-2 melanoma
SK-MEL-28 melanoma = system: SK-MEL-28 melanoma
SK-MEL-5 melanoma = system: SK-MEL-5 melanoma
SK-OV-3 ovarian = system: SK-OV-3 ovarian
SN12C renal = system: SN12C renal
SNB-19 CNS = system: SNB-19 CNS
SNB-75 CNS = system: SNB-75 CNS
SR leukemia = system: SR leukemia
SW-620 colon = system: SW-620 colon
T-47D breast = system: T-47D breast
TK-10 renal = system: TK-10 renal
U251 CNS = system: U251 CNS
UACC-257 melanoma = system: UACC-257 melanoma
UACC-62 melanoma = system: UACC-62 melanoma
UO-31 renal = system: UO-31 renal
A498 renal = system: A498 renal
HCT-116 colon = system: HCT-116 colon

## CN(C)CCCn1c2c(c3ccc(N4CCNCC4)cc3c1=O)C(=O)c1ccccc1-2
786-0 renal
  GI50: 1340 nM
  TGI: 2730 nM
A549 NSCLC
  GI50: 224 nM
  TGI: 2230 nM
ACHN renal
  GI50: 392 nM
  TGI: 2630 nM
BT-549 breast
  GI50: 1270 nM
  TGI: 2770 nM
CAKI-1 renal
  GI50: 1050 nM
  TGI: 4520 nM
CCRF-CEM leukemia
  GI50: 335 nM
  TGI: 1940 nM
COLO 205 colon
  GI50: 624 nM
  TGI: 2280 nM
DU-145 prostate
  GI50: 329 nM
  TGI: 1650 nM
EKVX NSCLC
  GI50: 1180 nM
  TGI: 2930 nM
HCC-2998 colon
  GI50: 352 nM
  TGI: 1710 nM
HCT-15 colon
  GI50: 728 nM
  TGI: 3040 nM
HL-60(TB) leukemia
  GI50: 1170 nM
  TGI: 3050 nM
HOP-62 NSCLC
  GI50: 1060 nM
  TGI: 2640 nM
HOP-92 NSCLC
  GI50: 1720 nM
  TGI: 6530 nM
HS 578T breast
  GI50: 1440 nM
  TGI: 4380 nM
HT29 colon
  GI50: 351 nM
  TGI: 1900 nM
IGROV1 ovarian
  GI50: 844 nM
  TGI: 3730 nM
K-562 leukemia
  GI50: 833 nM
  TGI: 2550 nM
KM12 colon
  GI50: 1130 nM
  TGI: 3070 nM
LOX IMVI melanoma
  GI50: 145 nM
  TGI: 481 nM
M14 melanoma
  GI50: 1050 nM
  TGI: 2390 nM
MALME-3M melanoma
  GI50: 1420 nM
  TGI: 3460 nM
MCF7 breast
  GI50: 296 nM
  TGI: 1780 nM
MDA-MB-231 breast
  GI50: 505 nM
  TGI: 2050 nM
MDA-MB-435
  GI50: 1200 nM
  TGI: 2670 nM
MOLT-4 leukemia
  GI50: 97.9 nM
  TGI: 922 nM
NCI-H226 lung
  GI50: 564 nM
  TGI: 2900 nM
NCI-H23 lung
  GI50: 1050 nM
  TGI: 2640 nM
NCI-H460 lung
  GI50: 307 nM
  TGI: 1560 nM
NCI-H522 lung
  GI50: 960 nM
  TGI: 2550 nM
NCI/ADR-RES ovarian
  GI50: 1160 nM
  TGI: 2830 nM
OVCAR-3 ovarian
  GI50: 1050 nM
  TGI: 3070 nM
OVCAR-4 ovarian
  GI50: 343 nM
  TGI: 1880 nM
OVCAR-5 ovarian
  GI50: 2120 nM
  TGI: 5570 nM
OVCAR-8 ovarian
  GI50: 403 nM
  TGI: 1990 nM
PC-3 prostate
  GI50: 863 nM
  TGI: 3790 nM
RPMI-8226 leukemia
  GI50: 271 nM
  TGI: 978 nM
RXF 393 renal
  GI50: 1290 nM
  TGI: 2900 nM
SF-268 CNS
  GI50: 950 nM
  TGI: 2720 nM
SF-295 CNS
  GI50: 1160 nM
  TGI: 3360 nM
SF-539 CNS
  GI50: 1610 nM
  TGI: 3160 nM
SK-MEL-2 melanoma
  GI50: 1710 nM
  TGI: 3380 nM
SK-MEL-28 melanoma
  GI50: 1530 nM
  TGI: 3330 nM
SK-MEL-5 melanoma
  GI50: 698 nM
  TGI: 2200 nM
SK-OV-3 ovarian
  GI50: 1050 nM
  TGI: 3510 nM
SN12C renal
  GI50: 329 nM
  TGI: 1790 nM
SNB-19 CNS
  GI50: 541 nM
  TGI: 3230 nM
SNB-75 CNS
  GI50: 947 nM
  TGI: 2550 nM
SR leukemia
  GI50: 307 nM
  TGI: 1690 nM
SW-620 colon
  GI50: 164 nM
  TGI: 1610 nM
T-47D breast
  GI50: 1550 nM
  TGI: 4420 nM
TK-10 renal
  GI50: 1330 nM
  TGI: 4410 nM
U251 CNS
  GI50: 639 nM
  TGI: 2310 nM
UACC-257 melanoma
  GI50: 1690 nM
  TGI: 3740 nM
UACC-62 melanoma
  GI50: 1030 nM
  TGI: 2520 nM
UO-31 renal
  GI50: 765 nM
  TGI: 2560 nM

## COc1cc(F)c(F)c(F)c1C(=O)c1cnc(NC2CCN(S(C)(=O)=O)CC2)nc1N
786-0 renal
  GI50: 1640 nM
  TGI: > 21500 nM
A498 renal
  GI50: 1280 nM
  TGI: 6690 nM
A549 NSCLC
  GI50: 1000 nM
  TGI: > 25000 nM
ACHN renal
  GI50: 906 nM
  TGI: > 25000 nM
BT-549 breast
  GI50: 3230 nM
  TGI: 8350 nM
CAKI-1 renal
  GI50: 843 nM
  TGI: 10800 nM
CCRF-CEM leukemia
  GI50: 1210 nM
  TGI: > 25000 nM
COLO 205 colon
  GI50: 783 nM
  TGI: 4490 nM
DU-145 prostate
  GI50: 2580 nM
  TGI: > 22000 nM
HCC-2998 colon
  GI50: 2870 nM
  TGI: > 21600 nM
HCT-116 colon
  GI50: 560 nM
  TGI: > 25000 nM
HCT-15 colon
  GI50: 1320 nM
  TGI: > 25000 nM
HL-60(TB) leukemia
  GI50: 244 nM
  TGI: 6310 nM
HOP-62 NSCLC
  GI50: 2110 nM
  TGI: 16200 nM
HOP-92 NSCLC
  GI50: 410 nM
  TGI: 7110 nM
HS 578T breast
  GI50: 3170 nM
  TGI: 18100 nM
HT29 colon
  GI50: 1070 nM
  TGI: 15200 nM
IGROV1 ovarian
  GI50: 1120 nM
  TGI: 21000 nM
K-562 leukemia
  GI50: 4780 nM
  TGI: > 25000 nM
KM12 colon
  GI50: 958 nM
  TGI: > 14400 nM
LOX IMVI melanoma
  GI50: 1040 nM
  TGI: > 13000 nM
M14 melanoma
  GI50: 3090 nM
  TGI: 10200 nM
MALME-3M melanoma
  GI50: 3950 nM
  TGI: 11300 nM
MCF7 breast
  GI50: 166 nM
  TGI: > 25000 nM
MDA-MB-231 breast
  GI50: 1260 nM
  TGI: 16000 nM
MDA-MB-435
  GI50: 782 nM
  TGI: 7180 nM
MOLT-4 leukemia
  GI50: 845 nM
  TGI: 11400 nM
NCI-H226 lung
  GI50: 1860 nM
  TGI: 15700 nM
NCI-H23 lung
  GI50: 1240 nM
  TGI: 14800 nM
NCI-H460 lung
  GI50: 428 nM
  TGI: > 25000 nM
NCI-H522 lung
  GI50: 5560 nM
  TGI: 15600 nM
NCI/ADR-RES ovarian
  GI50: 5160 nM
  TGI: > 25000 nM
OVCAR-3 ovarian
  GI50: 2330 nM
  TGI: > 19000 nM
OVCAR-4 ovarian
  GI50: 3290 nM
  TGI: > 25000 nM
OVCAR-5 ovarian
  GI50: 1450 nM
  TGI: > 25000 nM
OVCAR-8 ovarian
  GI50: 2280 nM
  TGI: > 25000 nM
PC-3 prostate
  GI50: 476 nM
  TGI: 9300 nM
RPMI-8226 leukemia
  GI50: 417 nM
  TGI: 9660 nM
RXF 393 renal
  GI50: 534 nM
  TGI: 1980 nM
SF-268 CNS
  GI50: 2780 nM
  TGI: > 18900 nM
SF-295 CNS
  GI50: 1580 nM
  TGI: > 9450 nM
SF-539 CNS
  GI50: 1240 nM
  TGI: 6060 nM
SK-MEL-2 melanoma
  GI50: 3020 nM
  TGI: 7460 nM
SK-MEL-28 melanoma
  GI50: 2240 nM
  TGI: 18400 nM
SK-MEL-5 melanoma
  GI50: 986 nM
  TGI: > 23600 nM
SK-OV-3 ovarian
  GI50: 11600 nM
  TGI: > 25000 nM
SN12C renal
  GI50: 1960 nM
  TGI: > 25000 nM
SNB-19 CNS
  GI50: 1390 nM
  TGI: > 25000 nM
SNB-75 CNS
  GI50: 3650 nM
  TGI: 8750 nM
SR leukemia
  GI50: 371 nM
  TGI: > 10000 nM
SW-620 colon
  GI50: 409 nM
  TGI: > 25000 nM
T-47D breast
  GI50: 2640 nM
  TGI: > 24100 nM
TK-10 renal
  GI50: 1600 nM
  TGI: 24700 nM
U251 CNS
  GI50: 780 nM
  TGI: > 25000 nM
UACC-257 melanoma
  GI50: 3000 nM
  TGI: 14000 nM
UACC-62 melanoma
  GI50: 1490 nM
  TGI: 7980 nM
UO-31 renal
  GI50: 1600 nM
  TGI: 13400 nM
